{"source": "patent US20140179619A1", "about": "“POLYPEPTIDE, NUCLEOTIDE SEQUENCE THEREOF, AND METHOD FOR USING THE SAME FOR PREVENTING DNA SYNTHESIS AND INHIBITING CELL PROLIFERATION” (Wuhan Yicheng Biotech, Inc., priority 2011, published 2014)", "key": {"[1]": {"system": "human granulocytic leukemia cells K562", "assay": "Growth of human leukemia tumor in mice", "conditions": "K562 subcutaneous in mice, tumor weight vs control, injection every other day 7 times, after two weeks; PTD-P15 1 mg, Glivec 10 mcg", "text": "After 5×10^6human granulocytic leukemia cells K562 injected into the subcutaneous tissue of mice, the mice were randomly divided into five groups. […] After two weeks, the mice were killed, from which the tumors grown in the subcutaneous tissue of the mice were taken out and weighed."}, "[2]": {"system": "MCF-7 (breast cancer cell line)", "assay": "Cell cycle distribution by FCM of GFP-positive transfected cells", "type": "cell-based", "conditions": "Cells MCF7, GFP-positive cells sorted two days after transfection", "description": "(§1) The impact of P15 on cell proliferation is tested with NIH/3T3 (fibroblast and eptithlial cells, purchased from American ATCC, Cat No. CRL-1658) and MCF-7 (breast cancer cell line, purchased from American ATCC, Cat No. HTB-22).\n(§2) Plasmid used for experiment: pEGFP-P15 (to express fused protein P15-GFP); control plasmid: pEGFP-N1\n(§3) After the plasmid for transfection and the lipofectamine reagent (purchased from American Invitrogen, Cat No. 11668) were mixed, the mixture stayed for 15 minutes at room temperature. Then the mixture was first introduced into cells (with a cell density of about 50%) cultured in DMEM without serum for 5 hours of cultivation at 37° C. and next into SBF with a mass concentration of 10% for 48 hours of cultivation. […] In addition, by the use of FCM, it was easy to separate and purify the positive fluorescent protein cells. The symbolic indicators to test cell proliferation such as cell cycle were used to study and testify the impact of P15 on cell proliferation, while in these experiments, only the cells that express fluorescent proteins were used as control group.\n(§4) First, we used the above mentioned plasmid to transfect 3T3 and MCF7, and used FCM to sort the positive GFP cells transfected with DNA and analyzed the cycle distribution of these cells two days later."}, "[3]": {"system": "NIH/3T3", "assay": "Cell cycle distribution by FCM of GFP-positive transfected cells", "type": "cell-based", "description": "as §1, §2, §3, §4"}, "[4]": {"system": "Cells 3T3", "assay": "BrdU penetration in DNA (DNA synthesis) in transfected cells", "type": "cell-based", "description": "(§5) DNA synthesis is the symbol of cell proliferation. In the next experiment, we tested the impact of P15 on DNA synthesis. Within the 15 hours after 3T3 and MCF7 transfecting pEGFP-N 1 and expressing P15-GFP plasmid for two days, the BrdU labeled […] that can penetrate in the newly synthesized DNA chain were added in cell culture fluid. The positive GFP cells in plasmid were detected and transfected with immunofluorescence technique, and the positive rate of BrdU penetration in DNA (this reflects the rate of DNA synthesis) was ascertained."}, "[5]": {"system": "Cells MCF7", "assay": "BrdU penetration in DNA (DNA synthesis) in transfected cells", "type": "cell-based", "description": "as §5"}, "[6]": {"conditions": "Cells 3T3, GFP-positive cells sorted two days after transfection"}}, "note": "No end group written: not given here.", "data": [{"compound": "Cc1ccc(NC(=O)c2ccc(CN3CCN(C)CC3)cc2)cc1Nc1nccc(-c2cccnc2)n1", "note": "[Glivec]", "values": [{"measurement": "Inhibition ratio", "setting": "[1]", "value": 48, "unit": "%"}]}, {"compound": "P15-GFP: fused protein consisted of P15 and GFP, P15 connected to the end N of GFP, expressed from plasmid pEGFP-P15 (MPYSTELIFYIEMDP-{GFP})", "values": [{"measurement": "G0/G1", "setting": "[2]", "value": 85.6, "unit": "%"}, {"measurement": "G2/M", "setting": "[2]", "value": 3.3, "unit": "%"}, {"measurement": "S", "setting": "[2]", "value": 11.1, "unit": "%"}, {"measurement": "G0/G1", "setting": "[3]; [6]", "value": 52.1, "unit": "%"}, {"measurement": "G2/M", "setting": "[3]; [6]", "value": 25.7, "unit": "%"}, {"measurement": "S", "setting": "[3]; [6]", "value": 22.1, "unit": "%"}, {"measurement": "Positive BrdU cells", "setting": "[4]; Cells 3T3, BrdU 15 hours, two days after transfection", "value": 12.5, "unit": "%"}, {"measurement": "Inhibition ratio", "setting": "[4]; Cells 3T3, DNA synthesis, relative to GFP", "value": 76.8, "unit": "%"}, {"measurement": "Positive BrdU cells", "setting": "[5]; Cells MCF7, BrdU 15 hours, two days after transfection", "value": 5.2, "unit": "%"}, {"measurement": "Inhibition ratio", "setting": "[5]; Cells MCF7, DNA synthesis, relative to GFP", "value": 83.4, "unit": "%"}]}, {"compound": "asparaginic acid-arginine-arginine-asparaginic acid-leucine-tyrosine-asparaginic acid-asparaginic acid-asparaginic acid-asparaginic acid-lysine-asparaginic acid-arginine-methionine-alanine-glycine-threonine-methionine [Control polypeptide]", "values": [{"measurement": "Inhibition ratio", "setting": "[1]", "value": "−2", "unit": "%"}]}, {"compound": "methionine-proline-tyrosine-serine-threonine-glutamic acid-leucine-isoleucine-phenylalanine-tyrosine-isoleucine-glutamic acid-methionine-asparaginic acid-proline [P15]", "values": [{"measurement": "impact on cell apoptosis", "setting": "[3]; expression of P15 in 3T3 and MCF7", "value": "no obvious impact on cell apoptosis"}]}]}
